We go through six substances from publication PMC7907166, “AOA-2 Derivatives as Outer Membrane Protein A Inhibitors for Treatment of Gram-Negative Bacilli Infections” (Frontiers in Microbiology, 2021).

Series [1] relates to E. coli ATCC 25922. Briefly: Bacterial adhesion assay to A549 cells. Type of series: cell-based. The conditions noted are these: for adherence of E. coli to A549 cells reduced to: bacteria pre-incubated with peptide 250 μg/mL 30 min, MOI 500, 2 h, CFU count; for adherence of ATCC 25922 to host cells compared with AOA-2: peptide 125, 62.5 and 31.25 μg/mL, Figure 2B. The method, then:
(§1) The human pneumocyte cell line type II A549, derived from a human lung carcinoma, obtained from the American Type Culture Collection was used and cultured in DMEM medium (Invitrogen, Spain) supplemented with 10% of heat-inactivated fetal bovine serum, 50 μg/mL vancomycin (Laboratorios Normon, Spain), 20 μg/mL gentamicin (Normon Laboratories, Spain), 0.25 μg/mL amphotericin B mL (Invitrogen, Spain) and 1% HEPES (Invitrogen, Spain) in a humidified incubator, 5% CO2 at 37°C. Routine passage of A549 cells was performed every 3–4 days. Cells were seeded 24 h in 96-well plates (Sarstedt, Germany) for the cell viability assay, and in 24-well plates (Sarstedt, Germany) for the bacterial adhesion assays.
(§2) A. baumannii ATCC 17978, P. aeruginosa PAO1 and E. coli ATCC 25922 strains were incubated with AOA-2 (31.25, 62.5, 125, and 250 μg/mL, 30 min), AOA-2 derivatives RW01, RW02, RW03, RW06, RW07, RW08, RW09, RW10, RW11, and RW13 (250 μg/mL, 30 min), or AOA-2 derivatives RW01, RW02, RW03, RW06 (31.25, 62.5, and 125 μg/mL, 30 min), and added at 10^8 CFU/mL, corresponding to a multiplicity of infection (MOI) of 500, to the A549 cells for 2 h at 5% CO2 and 37°C. Subsequently, infected A549 cells were washed five times with prewarmed PBS 1X and lysed with 0.5% Triton X-100. Serial dilutions of these lysates were made and plated on blood agar plates (Blood-Agar Columbia, Becton Dickinson Microbiology Systems, United States) and incubated at 37°C for 24 h for colony counting and then determination of CFU/mL that attached to A549 cells.

The subject of series [2] is A. baumannii ATCC 17978. Briefly: Bacterial adhesion assay to A549 cells. The conditions noted are these: for adherence of A. baumannii to A549 cells reduced to: bacteria pre-incubated with peptide 250 μg/mL 30 min, MOI 500, 2 h, CFU count; for adherence of ATCC 17978 to A549 cells compared with AOA-2: peptide 125, 62.5 and 31.25 μg/mL, except RW06 at 31.25 μg/mL, Figure 2B. It counts as cell-based. The method, then: as §1, §2

Series [3] concerns P. aeruginosa PAO1. Briefly: Bacterial adhesion assay to A549 cells. It counts as cell-based. Conditions: for adherence of P. aeruginosa to A549 cells reduced to: bacteria pre-incubated with peptide 250 μg/mL 30 min, MOI 500, 2 h, CFU count; for adherence of PAO1 strain to A549 cells compared with AOA-2: peptide 125, 62.5 and 31.25 μg/mL, some statistical differences, Figure 2B; for adherence of PAO1 strain to A549 cells (in words): peptide 250 μg/mL, 30 min, Figure 2A. The method, then: as §1, §2

For series [4], the system named is E. coli ATCC 25922. Description: Bacterial cytotoxicity: viability of infected A549 cells (MTT). Type of series: cell-based. Conditions: for cell viability of infected A549 cells with respect to untreated strain: ATCC 25922 pretreated with peptide 125, 62.5 and 31.25 μg/mL, 24 h infection. As for the experimental part:
(§3) A549 cells were incubated with the peptide derivatives RW01, RW02, RW03, RW06, RW07, RW08, RW09, RW10, RW11, and RW13 (0, 3.5, 7, 15, 35, 62, 125, 250, and 500 μg/mL) for 24 h with 5% CO2 at 37°C. Prior the evaluation of the peptides cytotoxicity, A549 cells were washed three times with prewarmed PBS 1X. Subsequently, quantitative cytotoxicity was evaluated by measuring the mitochondrial reduction activity using the 3-(4,5-dimethylthiazol-2-yl)-2,5-diphenyltetrazolium bromide (MTT) assay as described previously ([Smani et al., 2013]). The percentage of […] was calculated from the absorbance at 570 nm as follow: [(Absorbance 570 nm of treated cells/Absorbance 570 nm mean of untreated cells) × 100].
(§4) A549 cells were infected with 10^8 CFU/mL, corresponding to a MOI of 500, of A. baumannii ATCC 17978, P. aeruginosa PAO1 and E. coli ATCC 25922 strains pretreated with AOA-2 or AOA-2 derivatives RW01, RW02, RW03, and RW06 (31.25, 62.5, and 125 μg/mL, 30 min) for 24 h with 5% CO2 at 37°C. Prior to the evaluation of bacterial cytotoxicity, viable bacteria are first removed from A549 cell culture by washing these A549 cells five times with PBS 1X. Subsequently, cell viability was evaluated as described above.

The test system of series [5] is A. baumannii ATCC 17978. The description is as above. Type of series: cell-based. Conditions: for cell viability of infected A549 cells with respect to untreated strain: 24 h infection. The method, then:
as §3, §4

In series [6] the test system is P. aeruginosa PAO1. The series is described as above. Conditions: 24 h infection. Type of series: cell-based. As for the experimental part: as §3, §4
Series [7] has as its system OmpA-deficient mutant A. baumannii, JPAB01. It counts as cell-based. Conditions: peptide added at 125 μg/mL, did not change the activity.
In series [8] the test system is A. baumannii ATCC 17978. It counts as cell-based. Conditions: peptide added at 125 μg/mL; microdilution, two independent experiments. As for the experimental part: The minimal inhibitory concentration (MIC) of colistin in absence and presence of RW01 or RW06 at […] for A. baumannii ATCC 17978 strain was determined by microdilution assay in two independent experiments as previously reported ([Parra-Millán et al., 2018]).
For orientation: Dilution methods test growth across graded concentrations, often in twofold steps.

The subject of series [9] is A. baumannii, P. aeruginosa, and E. coli. The conditions noted are these: in vivo administration, ref Vila-Farrés et al., 2017, cited from earlier work. From the text: This study focuses on the paradigm of interference in pathogenesis, that is, disarming pathogenic bacteria by neutralizing their virulence factors ([Dickey et al., 2017]).
The test system of the next series is A549 cells. The arrangement: method as in Vila-Farrés et al., 2017. Conditions: cited from earlier work.
The test system of a further series is A. baumannii. The arrangement: method as in Parra-Millán et al., 2018. The conditions noted are these: ref Parra-Millán et al., 2018; cited from earlier work. From the text: Therefore, we thought it would be interesting to examine the capacity of RW01 and RW06 to potentiate the activity of colistin against A. baumannii ATCC 17978 strain.
The subject of series [10] is colistin-resistant A. baumannii. Conditions: ref Parra-Millán et al., 2018; cited from earlier work. From the text: The therapeutic efficacy of these […] should also be further evaluated in combination with antimicrobial agents used in the clinical setting.
The mark [11] stands for this setting: ATCC 17978 pretreated with peptide 125 μg/mL only.

As to “&Trp-(NH2) D-Pro-Arg-Trp-D-Pro-Arg& (head to tail) [RW01, AOA-2 derivative, solubility enhanced by the addition of NH2 group]”, in the series with E. coli ATCC 25922 [1], the “adherence of E. coli to A549 cells reduced to” value amounted to 66.66% and the “adherence of ATCC 25922 to host cells compared with AOA-2” value was “reduced with some statistical differences”. Also, in the series on A. baumannii ATCC 17978 [2], the “adherence of A. baumannii to A549 cells reduced to” value is on record as 26.18% and the “adherence of ATCC 17978 to A549 cells compared with AOA-2” value was “reduced non-statistically”. In the series with P. aeruginosa PAO1 [3], the “adherence of P. aeruginosa to A549 cells reduced to” value is on record as 40.08% and the “adherence of PAO1 strain to A549 cells compared with AOA-2” value was “reduced better”. In addition, the “cell viability of infected A549 cells with respect to untreated strain” value (from here on “cell viability of infected A549 cells”) in the series on E. coli ATCC 25922 [4] is reported as “increased significantly”. Also, the “protection from cell death caused by ATCC 25922 compared with AOA-2” value in the series on E. coli ATCC 25922 [4] (peptide 62.5 and 31.25 μg/mL) was “more protective”. Moreover, the “cell viability of infected A549 cells” value in the series on A. baumannii ATCC 17978 [5] (setting [11]) is “increased significantly”. In the series on P. aeruginosa PAO1 [6] (PAO1 pretreated with peptide 125 and 62.5 μg/mL (31.25 μg/mL excepted)), the “cell viability of infected A549 cells” value is given as “increased significantly”. The “MIC of colistin in presence of peptide” value in [7] is 0.0625 µg/mL. In the series on A. baumannii ATCC 17978 [8], the “MIC of colistin in presence of peptide” value came out at 0.015 µg/mL.
Turning to “&Trp-D-Pro-Arg-Trp-D-Pro-Arg& (head to tail) [AOA-2]”, in the series on E. coli ATCC 25922 [1], the “adherence of E. coli to A549 cells reduced to” value was 65.05%. Further, the “adherence of A. baumannii to A549 cells reduced to” value in the series with A. baumannii ATCC 17978 [2] was 36.62%. Moreover, in the series on P. aeruginosa PAO1 [3], the “adherence of P. aeruginosa to A549 cells reduced to” value is reported as 84.47%. In addition, the “cell viability of infected A549 cells” value in the series with E. coli ATCC 25922 [4] was “did not increase significantly”; in the series with A. baumannii ATCC 17978 [5] (ATCC 17978 pretreated with peptide 125, 62.5 and 31.25 μg/mL, 30 min), “did not increase significantly”; with P. aeruginosa PAO1 [6] (PAO1 pretreated with peptide 125, 62.5 and 31.25 μg/mL), “did not increase significantly”. Besides, the mice mortality result in series [9] (especially in A. baumannii) was “significant decrease”. The “bacterial load in tissues” value in [9] is reported as “large decrease”. For the same substance, in the series with A549 cells, the “toxicity in human lung epithelial cells” value is listed as “did not show toxicity”. Besides, the synergy with colistin entry in the series on A. baumannii is given as “synergize with colistin”. Moreover, the “therapeutic efficacy when combined with colistin” value in series [10] was “good therapeutic efficacy”.
Consider “&Trp-D-Pro-Dab-Trp-D-Pro-Dab& (head to tail) [RW06, AOA-2 derivative with arginine analog Dab]”, for which, in the series on E. coli ATCC 25922 [1], the “adherence of E. coli to A549 cells reduced to” value stood at 44.44% and the “adherence of ATCC 25922 to host cells compared with AOA-2” value is “reduced with some statistical differences”. In the series on A. baumannii ATCC 17978 [2], the “adherence of A. baumannii to A549 cells reduced to” value was 32.83% and the “adherence of ATCC 17978 to A549 cells compared with AOA-2” value is reported as “reduced non-statistically”. Further, in the series on P. aeruginosa PAO1 [3], the “adherence of P. aeruginosa to A549 cells reduced to” value was 31.14% and the “adherence of PAO1 strain to A549 cells compared with AOA-2” value is “reduced better”. Also, the “cell viability of infected A549 cells” value with E. coli ATCC 25922 [4] is “did not increase significantly”. For the same substance, the “cell viability of infected A549 cells” value in the series on A. baumannii ATCC 17978 [5] (setting [11]) was “increased significantly”. The “protection from cell death caused by ATCC 17978 compared with AOA-2” value with A. baumannii ATCC 17978 [5] (peptide 62.5 μg/mL) was “protected more significantly”. In the series with P. aeruginosa PAO1 [6] (PAO1 pretreated with peptide 62.5 and 31.25 μg/mL (125 μg/mL excepted)), the “cell viability of infected A549 cells” value was “did not increase significantly”. In addition, the “MIC of colistin in presence of peptide” value in series [7] worked out at 0.0625 µg/mL. The “MIC of colistin in presence of peptide” value in the series on A. baumannii ATCC 17978 [8] turned out to be 0.015 µg/mL.
For the substance “&Trp-D-Pro-Lys-Trp-D-Pro-Lys& (head to tail) [RW07, AOA-2 derivative with arginine analog lysine]”, the “adherence of ATCC 25922 strain to A549 cells (in words)” value in the series with E. coli ATCC 25922 [1] (peptide 250 μg/mL, 30 min, Figure 2A) is recorded as “reduced”. Also, in the series with P. aeruginosa PAO1 [3], the “adherence of PAO1 strain to A549 cells (in words)” value is given as “reduced”.
In the case of “&Trp-D-Pro-Trp-Arg-D-Pro-Arg& (head to tail) [RW09]”, the “adherence of PAO1 strain to A549 cells (in words)” value in the series with P. aeruginosa PAO1 [3] is on record as “reduced”.
Consider “&Tyr-D-Pro-Ala-Tyr-D-Pro-Ala& (head to tail) [RW10]”, for which, in the series on P. aeruginosa PAO1 [3], the “adherence of PAO1 strain to A549 cells (in words)” value is reported as “reduced”.
